According to US9896443B2, “Perforin inhibiting benzenesulfonamide compounds, preparation and uses thereof” (Peter MacCallum Cancer Institute, priority 2012, dated 2018):
Structures can show the parent of a compound that is named as a salt. Where two headings read alike, the source gives them in different places.

What was measured:
[1] = system: NK and perforin-mediated bone marrow rejection; test: In vivo inhibition of perforin-mediated bone marrow rejection; design: species or system C57Bl/6 mice; details: 120 mg/kg intra-peritoneal once daily day -2 to day +1; Balb/c bone marrow transplant; blood day +1
Procedure: In Vivo Inhibition of Perforin-Mediated Bone Marrow Rejection.
On day 0 mice received 12×106 Balb/c (CD45.2+) CFSE labelled bone marrow as well as 12×106 B6.PTP (CD45.1+) bone marrow. On day +1 blood was collected for in vivo cytotoxicity assays looking at the ratio of recipient (CD45.1+) versus donor cells (CFSE+) (FIG. 1). Results are illustrated in FIG. 2 as two experiments combined with n=6, 10, 10, 4 and 3/group. […] Statistically significant differences were calculated using two-tailed t tests between groups.

[2] = system: KHYG-1 NK cell-mediated lysis of K562 cells; test: Inhibition of KHYG-1 NK cell-mediated lysis of K562 cells (51Cr release); type: cell-based; details: K562 target cells, Effector:Target 2:1, 4 hours at 37° C.
Outline: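 KHYG-1 effector cells pretreated with compound (up to 20 µM) for 20 min at RT. 51Cr-labelled K562 targets were then added at effector:target 2:1 and incubated 4 h at 37 °C. 51Cr release was gamma-counted and expressed as % specific cytotoxicity.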

recombinant perforin = recombinant perforin (UniProt P10820); type: cell-based
Outline: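 Jurkat T lymphoma cells labelled with 51Cr for 1 h, washed, then exposed to recombinant perforin with compound in RPMI plus 0.1% BSA. Lysis measured as 51Cr release. IC50 from a concentration range run in triplicate.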

[3] = lysis of Jurkat T lymphoma cells by recombinant perforin, 0.1% BSA, 30 min pre-incubation, 4 hours at 37° C.; read-out: Jurkat IC50
[4] = read-out: Jurkat IC50; lysis of Jurkat T lymphoma cells by recombinant perforin, 0.1% BSA, 30 min pre-incubation, 4 hours at 37° C.

Sequence of recombinant perforin (P10820 whole entry): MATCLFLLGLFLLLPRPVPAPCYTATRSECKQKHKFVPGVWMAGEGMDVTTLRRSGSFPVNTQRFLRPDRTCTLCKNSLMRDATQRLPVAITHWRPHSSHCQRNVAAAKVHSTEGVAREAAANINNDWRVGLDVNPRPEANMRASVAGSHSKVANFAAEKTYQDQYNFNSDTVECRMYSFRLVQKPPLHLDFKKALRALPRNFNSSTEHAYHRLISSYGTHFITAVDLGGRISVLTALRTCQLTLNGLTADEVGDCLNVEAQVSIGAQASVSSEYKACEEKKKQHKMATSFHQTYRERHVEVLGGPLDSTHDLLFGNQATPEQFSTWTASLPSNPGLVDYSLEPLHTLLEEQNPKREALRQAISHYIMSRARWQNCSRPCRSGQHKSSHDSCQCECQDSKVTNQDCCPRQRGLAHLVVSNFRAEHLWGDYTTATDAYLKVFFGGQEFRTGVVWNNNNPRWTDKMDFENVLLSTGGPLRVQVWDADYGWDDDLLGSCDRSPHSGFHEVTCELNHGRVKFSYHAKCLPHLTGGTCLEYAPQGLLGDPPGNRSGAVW

SMILES	inhibition of NK and perforin-mediated bone marrow rejection [1]	Inhibition of KHYG-1 at 20 μM (%) ([2]; sodium salt)	melting point [°C]	inhibition at 20 µM ([2]; 4 h) [%]	IC50 (recombinant perforin; [3]) [µM]	IC50 (recombinant perforin; [4]) [µM]	inhibition at 20 µM [2] [%]	Inhibition of KHYG-1 at 20 μM (%) [2] [%]
CN1Cc2cc(-c3ccc(-c4cncc(NS(=O)(=O)c5ccc(F)cc5F)c4)s3)ccc2C1=O [Compound 1.Na, 2,4-Difluoro-N-(5-(5-(2-methyl-1-oxoisoindolin-5-yl)thiophen-2-yl)pyridin-3-yl)benzenesulfonamide, sodium salt]	able to inhibit NK and perforin-mediated bone marrow rejection	48	–	–	–	–	–	–
CN1Cc2cc(-c3ccc(-c4cncc(NS(=O)(=O)c5ccccn5)c4)s3)ccc2C1=O [Compound 31, N-(5-(5-(2-Methyl-1-oxoisoindolin-5-yl)thiophen-2-yl)pyridin-3-yl)pyridine-2-sulfonamide]	–	–	272 to 275	19	0.74	–	–	–
CN1Cc2cc(-c3ccc(-c4cncc(NS(=O)(=O)c5cccs5)c4)s3)ccc2C1=O [Compound 34, N-(5-(5-(2-Methyl-1-oxoisoindolin-5-yl)thiophen-2-yl)pyridin-3-yl)thiophene-2-sulfonamide]	–	–	300 to 304	45	1.07	–	–	–
COc1ncc(-c2ccc(-c3ccc4c(c3)CN(C)C4=O)s2)cc1NS(=O)(=O)c1ccc(F)cc1F [Compound 37, 2,4-Difluoro-N-(2-methoxy-5-(5-(2-methyl-1-oxoisoindolin-5-yl)thiophen-2-yl)pyridin-3-yl)benzenesulphonamide]	–	–	224 to 227	36	3.56	–	–	–
CN1Cc2cc(-c3ccc(-c4ccnc(NS(=O)(=O)c5ccc(F)cc5F)c4)s3)ccc2C1=O [Compound 41, 2,4-Difluoro-N-(4-(5-(2-methyl-1-oxoisoindolin-5-yl)thiophen-2-yl)pyridin-2-yl)benzenesulfonamide]	–	–	235 to 239	14	4.7	–	–	–
CN1Cc2cc(-c3ccc(-c4cccc(NS(=O)(=O)c5ccc(F)cc5F)c4)s3)ccc2C1=O [Compound 43, 2,4-Difluoro-N-(3-(5-(2-methyl-1-oxoisoindolin-5-yl)thiophen-2-yl)phenyl)benzene sulphonamide]	–	–	260 to 262	18	5.74	–	–	–
CN1Cc2cc(-c3ccc(-c4cncc(S(=O)(=O)Nc5ccc(F)cc5F)c4)s3)ccc2C1=O [Compound 44, N-(2,4-Difluorophenyl)-5-(5-(2-methyl-1-oxoisoindolin-5-yl)thiophen-2-yl)pyridine-3-sulphonamide]	–	–	221 to 224	57	2.24	–	–	–
CN1Cc2cc(-c3ccc(-c4cnc(N)c(S(=O)(=O)Nc5ccc(F)cc5F)c4)s3)ccc2C1=O [Compound 45, 2-Amino-N-(2,4-difluorophenyl)-5-(5-(2-methyl-1-oxoisoindolin-5-yl)thiophen-2-yl)pyridine-3-sulphonamide]	–	–	278 to 279	14	–	4.63	–	–
CN1Cc2cc(-c3ccc(-c4cncc(N(C)S(=O)(=O)c5ccc(F)cc5F)c4)s3)ccc2C1=O [Compound 46, 2,4-Difluoro-N-methyl-N-(5-(5-(2-methyl-1-oxoisoindolin-5-yl)thiophen-2-yl)pyridin-3-yl)benzenesulphonamide]	–	–	200 to 202	28	9.13	–	–	–
CN1Cc2ccc(-c3ccc(-c4cncc(NS(=O)(=O)c5ccc(F)cc5F)c4)s3)cc2C1=O [Compound 50, 2,4-Difluoro-N-(5-(5-(2-methyl-3-oxoisoindolin-5-yl)thiophen-2-yl)pyridin-3-yl)benzenesulfonamide]	–	–	292 to 295	27	–	10.4	–	–
O=C1c2ccc(-c3ccc(-c4cncc(NS(=O)(=O)c5ccc(F)cc5F)c4)s3)cc2CN1CCO [Compound 56, 2,4-Difluoro-N-(5-(5-(2-(2-hydroxyethyl)-1-oxoisoindolin-5-yl)thiophen-2-yl)pyridin-3-yl)benzenesulfonamide]	–	–	211 to 216	32	–	1.33	–	–
CCCCn1cc(C(C)=O)c2cc(-c3ccc(-c4cncc(NS(=O)(=O)c5ccc(F)cc5F)c4)s3)ccc21 [Compound 58, N-(5-(5-(3-Acetyl-1-butyl-1H-indol-5-yl)thiophen-2-yl)pyridin-3-yl)-2,4-difluorobenzenesulfonamide]	–	–	188 to 191	–	5.5	–	64	–
CC(=O)c1cn(C)c2ccc(-c3ccc(-c4cncc(NS(=O)(=O)c5ccc(F)cc5F)c4)s3)cc12 [Compound 59, N-(5-(5-(3-Acetyl-1-methyl-1H-indol-5-yl)thiophen-2-yl)-pyridin-3-yl)-2,4-difluorobenzenesulfonamide]	–	–	241 to 244	72	–	11.2	–	–
Cc1ccc(NS(=O)(=O)c2ccccn2)cc1-c1ccc(-c2ccc3c(c2)CN(C)C3=O)s1 [Compound 60, N-(4-Methyl-3-(5-(2-methyl-1-oxoisoindolin-5-yl)thiophen-2-yl)phenyl)pyridine-2-sulfonamide]	–	–	274 to 277	17	15.4	–	–	–
CN1Cc2cc(-c3ccc(-c4ccc(OC(F)(F)F)c(NS(=O)(=O)c5ccccn5)c4)s3)ccc2C1=O [Compound 63, N-(5-(5-(2-Methyl-1-oxoisoindolin-5-yl)thiophen-2-yl)-2-(trifluoromethoxy)phenyl)pyridine-2-sulfonamide]	–	–	200 to 201	–	> 20	–	–	56.14 ± 9
